Experimental data from the supplement of paper PMC10331698.
± gives the standard deviation of the averaged measurements.

Tests used:
Test in all cases: level (log10 ratio to DMSO vehicle control); higher = higher biomarker level / cell amount than vehicle control
[1] = compound: C=CC(=O)OCCC(F)(F)C(F)(F)C(F)(F)C(F)(F)C(F)(F)C(F)(F)C(F)(F)C(F)(F)F [8:2 Fluorotelomer acrylate]; settings: in DMSO
Protocol: (§1)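 BioMAP Diversity Plus panel of 12 human primary cell co-culture systems (3C, 4H, LPS, SAg, BT, BF4T, BE3C, CASM3C, HDF3CGF, KF3CT, MyoF, Mphg). Compounds were added 1 h before stimulation and left for 24 h (MyoF 48 h; BT 72 h for soluble read-outs or 6 d for IgG). Biomarkers were read by ELISA, cytotoxicity by SRB, PBMC viability and proliferation by Alamar Blue. Each well value was divided by the mean of 8 DMSO control wells on the same plate and log10 transformed; duplicate blinded samples were tested at 4 concentrations.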

[2] = compound: OCCCCC(F)(F)C(F)(F)C(F)(F)C(F)(F)F [4:4 Fluorotelomer alcohol]; settings: in DMSO
Protocol: as §1

[3] = compound: OCC(F)(F)C(F)(F)C(F)(F)C(F)(F)C(F)(F)C(F)(F)C(F)(F)C(F)(F)C(F)(F)C(F)(F)C(F)(F)F [11:1 Fluorotelomer alcohol]; settings: in DMSO
Protocol: as §1

[4] = compound: C=CC(=O)OCC(F)(F)C(F)(F)C(F)(F)C(F)(F)COC(=O)C=C [1H,1H,6H,6H-Perfluorohexane-1,6-diol diacrylate]; settings: 6700 nM; in DMSO
Protocol: as §1

[5] = compound: O=S(=O)(OCC(F)(F)F)C(F)(F)C(F)(F)C(F)(F)C(F)(F)F [2,2,2-Trifluoroethyl perfluorobutanesulfonate]; settings: in DMSO
Protocol: as §1

[6] = compound: FC(F)(F)COC(OCC(F)(F)F)OCC(F)(F)F [tris(Trifluoroethoxy)methane]; settings: in DMSO
Protocol: as §1

Perfluorooctanoic acid = compound: O=C(O)C(F)(F)C(F)(F)C(F)(F)C(F)(F)C(F)(F)C(F)(F)C(F)(F)F [Perfluorooctanoic acid]; settings: in DMSO
Protocol: as §1

## HDF3CGF:TIMP-1
[1]; 6700 nM
  level (log10): -0.03 ± 0.02
[1]; 20000 nM
  level (log10): -0.0265 ± 0.022
[1]; 60000 nM
  level (log10): -0.011 ± 0.061
[2]; 6700 nM
  level (log10): -0.006 ± 0.017
[2]; 20000 nM
  level (log10): -0.001 ± 0.034
[2]; 60000 nM
  level (log10): 0.02 ± 0.057
[3]; 1100 nM
  level (log10): -0.029 ± 0.024
[3]; 3300 nM
  level (log10): -0.07 ± 0.0085
[3]; 10000 nM
  level (log10): -0.033 ± 0.016
[4]
  level (log10): -0.203 ± 0.0021
[5]; 6700 nM
  level (log10): -0.0095 ± 0.042
[5]; 20000 nM
  level (log10): 0.039 ± 0.0042
[5]; 60000 nM
  level (log10): 0.0325 ± 0.021
[6]; 6700 nM
  level (log10): -0.0195 ± 0.047
[6]; 20000 nM
  level (log10): 0.011 ± 0.02
[6]; 60000 nM
  level (log10): -0.001 ± 0.042
Perfluorooctanoic acid; 6700 nM
  level (log10): -0.015 ± 0.034
Perfluorooctanoic acid; 20000 nM
  level (log10): -0.029 ± 0.0099
Perfluorooctanoic acid; 60000 nM
  level (log10): 0.0155 ± 0.00071

## HDF3CGF:TIMP-2
[1]; 6700 nM
  level (log10): -0.014 ± 0.027
[1]; 20000 nM
  level (log10): -0.0405 ± 0.0064
[1]; 60000 nM
  level (log10): -0.0295 ± 0.0092
[2]; 6700 nM
  level (log10): -0.004 ± 0.0099
[2]; 20000 nM
  level (log10): 0.024 ± 0.028
[2]; 60000 nM
  level (log10): -0.0225 ± 0.026
[3]; 1100 nM
  level (log10): 0.001 ± 0.0042
[3]; 3300 nM
  level (log10): -0.045 ± 0.016
[3]; 10000 nM
  level (log10): -0.0325 ± 0.013
[4]
  level (log10): -0.104 ± 0.066
[5]; 6700 nM
  level (log10): 0.0105 ± 0.013
[5]; 20000 nM
  level (log10): 0.0375 ± 0.021
[5]; 60000 nM
  level (log10): 0.06 ± 0.0014
[6]; 6700 nM
  level (log10): -0.0165 ± 0.029
[6]; 20000 nM
  level (log10): -0.002 ± 0.037
[6]; 60000 nM
  level (log10): -0.0105 ± 0.005
Perfluorooctanoic acid; 6700 nM
  level (log10): -0.013 ± 0.014
Perfluorooctanoic acid; 20000 nM
  level (log10): 0.0045 ± 0.019
Perfluorooctanoic acid; 60000 nM
  level (log10): 0.033 ± 0.0042

## KF3CT:CCL2/MCP-1
[1]; 6700 nM
  level (log10): -0.0265 ± 0.042
[1]; 20000 nM
  level (log10): -0.0415 ± 0.0092
[1]; 60000 nM
  level (log10): -0.0725 ± 0.04
[2]; 6700 nM
  level (log10): -0.0035 ± 0.057
[2]; 20000 nM
  level (log10): 0.004 ± 0.044
[2]; 60000 nM
  level (log10): 0.0225 ± 0.042
[3]; 1100 nM
  level (log10): 0.0265 ± 0.013
[3]; 3300 nM
  level (log10): 0.0205 ± 0.00071
[3]; 10000 nM
  level (log10): 0.0305 ± 0.00071
[4]
  level (log10): -0.101 ± 0.045
[5]; 6700 nM
  level (log10): -0.018 ± 0.057
[5]; 20000 nM
  level (log10): -0.0485 ± 0.044
[5]; 60000 nM
  level (log10): -0.022 ± 0.014
[6]; 6700 nM
  level (log10): -0.021 ± 0.035
[6]; 20000 nM
  level (log10): -0.029 ± 0.0085
[6]; 60000 nM
  level (log10): 0.0315 ± 0.052
Perfluorooctanoic acid; 6700 nM
  level (log10): 0.005 ± 0.018
Perfluorooctanoic acid; 20000 nM
  level (log10): 0.0145 ± 0.029
Perfluorooctanoic acid; 60000 nM
  level (log10): -0.0785 ± 0.011

## KF3CT:CD54/ICAM-1
[1]; 6700 nM
  level (log10): 0.003 ± 0.0042
[1]; 20000 nM
  level (log10): -0.0155 ± 0.029
[1]; 60000 nM
  level (log10): -0.0455 ± 0.019
[2]; 6700 nM
  level (log10): 0.0095 ± 0.019
[2]; 20000 nM
  level (log10): -0.0025 ± 0.018
[2]; 60000 nM
  level (log10): 0.005 ± 0.024
[3]; 1100 nM
  level (log10): -0.014 ± 0.0071
[3]; 3300 nM
  level (log10): -0.0295 ± 0.0021
[3]; 10000 nM
  level (log10): -0.0045 ± 0.012
[4]
  level (log10): -0.076 ± 0.0028
[5]; 6700 nM
  level (log10): 0.015 ± 0.03
[5]; 20000 nM
  level (log10): -0.0055 ± 0.0092
[5]; 60000 nM
  level (log10): -0.006 ± 0.013
[6]; 6700 nM
  level (log10): -0.015
[6]; 20000 nM
  level (log10): -0.021 ± 0.0014
[6]; 60000 nM
  level (log10): -0.006 ± 0.023
Perfluorooctanoic acid; 6700 nM
  level (log10): -0.015 ± 0.011
Perfluorooctanoic acid; 20000 nM
  level (log10): -0.011 ± 0.0028
Perfluorooctanoic acid; 60000 nM
  level (log10): -0.0095 ± 0.018

## KF3CT:CXCL8/IL-8
[1]; 6700 nM
  level (log10): -0.011 ± 0.0014
[1]; 20000 nM
  level (log10): -0.047 ± 0.076
[1]; 60000 nM
  level (log10): -0.117 ± 0.053
[2]; 6700 nM
  level (log10): 0.0185 ± 0.037
[2]; 20000 nM
  level (log10): -0.006 ± 0.023
[2]; 60000 nM
  level (log10): 0.0205 ± 0.036
[3]; 1100 nM
  level (log10): 0 ± 0.013
[3]; 3300 nM
  level (log10): 0.015
[3]; 10000 nM
  level (log10): 0.014 ± 0.025
[4]
  level (log10): 0.0005 ± 0.021
[5]; 6700 nM
  level (log10): -0.0165 ± 0.0035
[5]; 20000 nM
  level (log10): 0.0045 ± 0.00071
[5]; 60000 nM
  level (log10): 0.017 ± 0.0057
[6]; 6700 nM
  level (log10): 0.002 ± 0.011
[6]; 20000 nM
  level (log10): 0.007 ± 0.013
[6]; 60000 nM
  level (log10): 0.012 ± 0.0014
Perfluorooctanoic acid; 6700 nM
  level (log10): 0.015 ± 0.0057
Perfluorooctanoic acid; 20000 nM
  level (log10): 0.0225 ± 0.0064
Perfluorooctanoic acid; 60000 nM
  level (log10): -0.011 ± 0.0099

## KF3CT:CXCL9/MIG
[1]; 6700 nM
  level (log10): -0.0065 ± 0.0092
[1]; 20000 nM
  level (log10): 0.0005 ± 0.0035
[1]; 60000 nM
  level (log10): 0.011 ± 0.0085
[2]; 6700 nM
  level (log10): 0.007 ± 0.023
[2]; 20000 nM
  level (log10): 0.0105 ± 0.011
[2]; 60000 nM
  level (log10): 0.0125 ± 0.022
[3]; 1100 nM
  level (log10): 0.0015 ± 0.0035
[3]; 3300 nM
  level (log10): -0.004
[3]; 10000 nM
  level (log10): 0.005 ± 0.011
[4]
  level (log10): -0.034 ± 0.0071
[5]; 6700 nM
  level (log10): 0.023 ± 0.021
[5]; 20000 nM
  level (log10): 0.0095 ± 0.028
[5]; 60000 nM
  level (log10): 0.0015 ± 0.053
[6]; 6700 nM
  level (log10): 0.0215 ± 0.032
[6]; 20000 nM
  level (log10): 0.006 ± 0.027
[6]; 60000 nM
  level (log10): 0.0175 ± 0.015
Perfluorooctanoic acid; 6700 nM
  level (log10): 0.006 ± 0.016
Perfluorooctanoic acid; 20000 nM
  level (log10): 0.006 ± 0.016
Perfluorooctanoic acid; 60000 nM
  level (log10): 0.01 ± 0.016

## KF3CT:CXCL10/IP-10
[1]; 6700 nM
  level (log10): -0.007 ± 0.0057
[1]; 20000 nM
  level (log10): -0.0125 ± 0.0021
[1]; 60000 nM
  level (log10): -0.0135 ± 0.00071
[2]; 6700 nM
  level (log10): 0.0105 ± 0.04
[2]; 20000 nM
  level (log10): 0.02 ± 0.03
[2]; 60000 nM
  level (log10): 0.0275 ± 0.037
[3]; 1100 nM
  level (log10): 0.003 ± 0.0042
[3]; 3300 nM
  level (log10): -0.002 ± 0.0057
[3]; 10000 nM
  level (log10): 0.0085 ± 0.0035
[4]
  level (log10): -0.0365 ± 0.005
[5]; 6700 nM
  level (log10): 0.0345 ± 0.022
[5]; 20000 nM
  level (log10): 0.033 ± 0.041
[5]; 60000 nM
  level (log10): 0.031 ± 0.042
[6]; 6700 nM
  level (log10): 0.005 ± 0.0042
[6]; 20000 nM
  level (log10): -0.0045 ± 0.0064
[6]; 60000 nM
  level (log10): -0.0025 ± 0.005
Perfluorooctanoic acid; 6700 nM
  level (log10): -0.006 ± 0.0042
Perfluorooctanoic acid; 20000 nM
  level (log10): -0.01 ± 0.0042
Perfluorooctanoic acid; 60000 nM
  level (log10): -0.0275 ± 0.0064
